From US8436039B2, “Inhibitors of the ATB(0,+) transporter and uses thereof” (Georgia Health Sciences University Research Institute, Inc., priority 2008, dated 2013)

Experiments:
mouse ATB^0,+ = target: T1, mouse ATB^0,+ (Mus musculus, UniProt Q9JMA9); assay: Inhibition of ATB^0,+-mediated glycine uptake in HRPE cells expressing cloned mouse ATB^0,+; type: cell-based; conditions: for inhibition of ATB^0,+-specific glycine uptake: glycine 10 μM, inhibitor 1 mM, 30 min, NaCl, HRPE cells
T1 sequence (Q9JMA9 1-638): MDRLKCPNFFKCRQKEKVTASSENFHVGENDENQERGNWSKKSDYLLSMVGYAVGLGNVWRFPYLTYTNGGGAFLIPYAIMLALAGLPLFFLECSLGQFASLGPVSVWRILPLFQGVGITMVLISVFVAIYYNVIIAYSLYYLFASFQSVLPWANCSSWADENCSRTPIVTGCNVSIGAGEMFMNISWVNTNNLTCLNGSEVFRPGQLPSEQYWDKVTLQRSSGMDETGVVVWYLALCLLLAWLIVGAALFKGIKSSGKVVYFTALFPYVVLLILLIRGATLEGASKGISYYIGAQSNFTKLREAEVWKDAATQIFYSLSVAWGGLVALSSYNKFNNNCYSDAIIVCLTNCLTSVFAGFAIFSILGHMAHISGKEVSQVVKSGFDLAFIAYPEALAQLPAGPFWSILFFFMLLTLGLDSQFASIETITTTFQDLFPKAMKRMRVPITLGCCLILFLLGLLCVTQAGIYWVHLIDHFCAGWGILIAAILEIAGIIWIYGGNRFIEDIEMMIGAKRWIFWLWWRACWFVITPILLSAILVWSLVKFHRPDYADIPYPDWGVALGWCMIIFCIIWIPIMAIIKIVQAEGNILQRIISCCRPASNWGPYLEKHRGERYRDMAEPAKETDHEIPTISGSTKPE

ATB^0,+ in MCF7 cells = target: T2, ATB^0,+ in MCF7 cells (Homo sapiens, UniProt Q9UN76); assay: D-serine uptake in MCF7 cells (constitutively expressed ATB^0,+); type: cell-based; conditions: for IC50: D-serine 5 μM, NaCl, read-out: IC50 for inhibition of D-serine uptake
T2 construct: host or cells: MCF7
T2 sequence (Q9UN76 1-642): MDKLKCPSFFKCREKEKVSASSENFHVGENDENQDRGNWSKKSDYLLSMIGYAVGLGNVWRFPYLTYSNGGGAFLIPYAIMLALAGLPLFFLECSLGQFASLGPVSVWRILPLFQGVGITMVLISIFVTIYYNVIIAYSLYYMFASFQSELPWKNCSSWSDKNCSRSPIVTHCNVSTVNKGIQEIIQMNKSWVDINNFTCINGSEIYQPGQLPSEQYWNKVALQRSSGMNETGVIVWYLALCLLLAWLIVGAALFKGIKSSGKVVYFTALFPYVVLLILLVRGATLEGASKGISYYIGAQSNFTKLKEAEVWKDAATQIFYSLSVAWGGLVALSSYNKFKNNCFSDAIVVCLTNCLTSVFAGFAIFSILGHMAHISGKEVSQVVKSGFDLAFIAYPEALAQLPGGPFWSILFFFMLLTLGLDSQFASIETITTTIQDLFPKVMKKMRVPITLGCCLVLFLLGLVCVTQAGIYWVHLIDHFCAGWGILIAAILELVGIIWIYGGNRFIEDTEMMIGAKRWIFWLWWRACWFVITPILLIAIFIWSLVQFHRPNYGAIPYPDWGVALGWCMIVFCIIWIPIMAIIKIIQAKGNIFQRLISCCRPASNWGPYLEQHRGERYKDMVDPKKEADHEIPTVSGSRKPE
Description: Cells were seeded and grown in 24-well culture plates to confluency and used for uptake measurements. Radiolabelled glycine or D-serine was used as the substrate to determine the transport function of ATB^0,+. Uptake measurements were routinely made in an NaCl-containing buffer (25 mM Hepes/Tris buffer, pH 7.4, 140 mM NaCl, 5.4 mM KCl, 1.8 mM CaCl2, 0.8 mM MgSO4 and 5 mM glucose). Ion dependence of the transport process was evaluated by studying the uptake activity in buffers of varying compositions. NaCl in the uptake buffer was replaced iso-osmotically with NMDG (N-methyl-D-glucamine) chloride to prepare an Na^+-free buffer, and with sodium gluconate to prepare a Cl^−-free buffer. Linear uptake rates were determined by employing a 10 min incubation period, based on time course experiments. Na^+-activation kinetics was analysed by studying the uptake rates in the presence of varying concentrations of Na^+ (2.5-140 mM) in the uptake buffer with Cl^− concentration kept constant at 140 mM. This was done by replacing NaCl with appropriate concentrations of NMDG. Cl^−-activation kinetics was analysed by studying the uptake rates in the presence of varying concentrations of Cl^− (2.5-100 mM) in the uptake buffer with Na^+ concentration kept constant at 140 mM. This was done by replacing NaCl with appropriate concentrations of sodium gluconate. Uptake data for Na^+- and Cl^−-activation kinetics were analysed using the Hill equation, and values for K0.5 for Na^+ and Cl^− and for the Hill coefficient (h) were determined by linear and non-linear regression methods. A commercially available software program (Sigma Plot, version 6.0; SPSS) was used for this purpose. Substrate specificity of the uptake process was evaluated by monitoring the effects of unlabelled amino acids (5 mM) on the uptake of radiolabelled glycine or D-serine (5 μM: radiolabelled substrate, 0.05 μM; unlabelled substrate, 4.95 μM).
The kinetic nature of inhibition of D-serine uptake by α-methyl-DL-tryptophan was investigated in MCF7 cells by monitoring the uptake at increasing concentrations of D-serine (range, 50-2000 μM) in the absence and presence of 100 μM α-methyl-DL-tryptophan. The kinetic parameters were calculated by linear regression (Eadie-Hofstee plots) and the values were confirmed by non-linear regression.
We employed a similar experimental strategy to detect specifically the transport function of ATB^0,+ in the remaining seven cell lines. […] We also investigated the effect of α-methyl-DL-tryptophan on D-serine uptake in MCF7 cells.

[1] = α-methyl-DL-tryptophan 100 μM, MCF7 cells

## Cn1cc(CC(N)C(=O)O)c2ccccc21 (racemic) [1-methyl-DL-tryptophan]
Mouse ATB^0,+
  inhibition of ATB^0,+-specific glycine uptake: inhibited
ATB^0,+ in MCF7 cells; MCF7 cells
  IC50: 221 ± 40 µM

## CC(N)(Cc1c[nH]c2ccccc12)C(=O)O (racemic) [α-methyl-DL-tryptophan]
Mouse ATB^0,+
  inhibition of ATB^0,+-specific glycine uptake: inhibited
ATB^0,+ in MCF7 cells; 100 μM blocker, D-serine 50-2000 μM, Eadie-Hofstee
  kinetic nature of inhibition of D-serine uptake: competitive
ATB^0,+ in MCF7 cells; [1]
  Kt for D-serine uptake in the presence of blocker: 869 ± 52 µM
  Vmax for D-serine uptake in the presence of blocker: 33.3±1.4 nmol/mg of protein per 15 min

## Cn1cc(C[C@@H](N)C(=O)O)c2ccccc21 [1-methyl-D-tryptophan]
Mouse ATB^0,+
  IC50: 780 ± 225 µM
ATB^0,+ in MCF7 cells; MCF7 cells
  IC50: 1580 ± 180 µM

## Cn1cc(C[C@H](N)C(=O)O)c2ccccc21 [1-methyl-L-tryptophan]
Mouse ATB^0,+
  IC50: 23 ± 5 µM
Mouse ATB^0,+; 1-methyl-L-tryptophan versus 1-methyl-D-tryptophan
  potency of L-isomer relative to D-isomer as inhibitor of ATB^0,+-mediated glycine uptake: at least 35 fold
ATB^0,+ in MCF7 cells; MCF7 cells
  IC50: 86 ± 11 µM
ATB^0,+ in MCF7 cells; D-serine uptake, MCF7 cells
  IC50 of L-isomer lower compared with D-isomer: at least 15 fold
